Results reported in patent publication US20180186742A1, “PICOLINAMIDES AS FUNGICIDES” (Dow AgroSciences LLC, priority 2017, published 2018).
Where two headings read alike, the source gives them in different places.

Experiments:
Assay type in all cases: in vivo
Phakopsora pachyrhizi = assay: Asian soybean rust (PHAKPA), disease control on soybean seedlings; details: High volume application at 25 ppm
Method: Technical grades of materials were dissolved in acetone, which were then mixed with nine volumes of water containing 0.011% Tween 20. The fungicide solutions were applied onto soybean seedlings using an automated booth sprayer to run-off. All sprayed plants were allowed to air dry prior to further handling.
Soybean plants (variety Williams 82) were grown in soil-less Metro mix, with one plant per pot. Two week old seedlings were used for testing. Plants were inoculated either 3 days prior to or 1 day after fungicide treatments. Plants were incubated for 24 h in a dark dew room at 22° C. and 100% relative humidity then transferred to a growth room at 23° C. for disease to develop. Disease severity was assessed on the sprayed leaves.

Puccinia triticina = assay: Wheat brown rust (PUCCRT), disease control on wheat seedlings; details: low volume application at 121.5 g/H
Method in brief: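 Compounds in acetone, diluted with nine volumes of water containing 110 ppm Triton X-100, sprayed to run-off on first-leaf Yuma wheat seedlings; track-spray tests used EC formulations with 0.1% Trycol 5941. Puccinia triticina spores applied before or after treatment. Overnight dark dew room at 22° C, 100% humidity, then greenhouse at 24° C.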

Zymoseptoria tritici = assay: Leaf blotch of wheat (SEPTTR), disease control on wheat seedlings; details: low volume application at 121.5 g/H
Method in brief: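 Z. tritici spores were inoculated onto wheat seedlings (Yuma, first leaf emerged) either before or after treatment. Treatment was an automated spray to run-off of acetone/Triton X-100 water solutions, or a track spray of EC formulations with 0.1% Trycol 5941. Plants were held in dew chambers at 20 °C and then a greenhouse at 20 °C. First-leaf severity (0–100%) was converted to percent control against untreated plants.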

[1] = 24 h, 1 Day Protectant, read-out: PHAKPA 1DP disease control rating
[2] = 72 h, 3 Day Curative, read-out: PHAKPA 3DC disease control rating
[3] = 24 h, 1 Day Protectant, read-out: PUCCRT disease control, 1DP, LV activity
[4] = 72 h, 3 Day Curative, read-out: PUCCRT disease control, 3DC, LV activity
[5] = 24 h, 1 Day Protectant, read-out: SEPTTR disease control, 1DP, LV activity
[6] = 72 h, 3 Day Curative, read-out: SEPTTR disease control, 3DC, LV activity

Structure (SMILES)	pest or weed control at 25 ppm (Phakopsora pachyrhizi; [1]) [%]	pest or weed control at 25 ppm (Phakopsora pachyrhizi; [2]) [%]	pest or weed control at 121.5 g/ha (Puccinia triticina; [3]) [%]	pest or weed control at 121.5 g/ha (Puccinia triticina; [4]) [%]	pest or weed control at 121.5 g/ha (Zymoseptoria tritici; [5]) [%]	pest or weed control at 121.5 g/ha (Zymoseptoria tritici; [6]) [%]
COc1ccnc(C(=O)N[C@@H](C)C(=O)O[C@@H](C)[C@@H](c2ccc(F)cc2C)C2CCCCC2)c1OC(C)=O [Compound 181]	< 0	< 80	< 80	< 80	< 80	> 80
CCC(C)[C@H](c1ccc(F)cc1C)[C@H](C)OC(=O)[C@H](C)NC(=O)c1nccc(OC)c1OC(C)=O (stereo partly drawn) [Compound 182]	< 80	< 80	> 80	< 80	< 80	> 80
COc1ccnc(C(=O)N[C@@H](C)C(=O)O[C@@H](C)[C@@H](c2ccc(F)cc2C)C2CCC2)c1OC(C)=O [Compound 183]	< 80	< 80	< 80	< 80	< 80	> 80
COc1ccnc(C(=O)N[C@@H](C)C(=O)O[C@@H](C)[C@H](c2ccc(F)cc2C)C2CCCC2)c1OC(C)=O [Compound 184]	> 80	< 80	> 80	> 80	> 80	> 80
COc1ccnc(C(=O)N[C@@H](C)C(=O)O[C@@H](C)[C@H](c2ccc(F)cc2C)C2CCCCC2)c1OC(C)=O [Compound 185]	> 80	< 80	> 80	< 80	> 80	> 80
CCC(C)[C@@H](c1ccc(F)cc1C)[C@H](C)OC(=O)[C@H](C)NC(=O)c1nccc(OC)c1OC(C)=O (stereo partly drawn) [Compound 188]	> 80	> 80	> 80	< 80	> 80	> 80
COc1ccnc(C(=O)N[C@@H](C)C(=O)O[C@@H](C)[C@H](c2ccc(F)cc2C)C2CCC2)c1OC(C)=O [Compound 189]	> 80	< 80	> 80	< 80	> 80	> 80
COc1ccnc(C(=O)N[C@@H](C)C(=O)O[C@H](C)[C@H](c2ccc(F)cc2C)C2CCCC2)c1OC(C)=O [Compound 190]	< 80	< 80	< 0	< 0	< 0	< 80
COc1ccnc(C(=O)N[C@@H](C)C(=O)O[C@H](C)[C@H](c2ccc(F)cc2C)C2CCCCC2)c1OC(C)=O [Compound 191]	< 80	< 0	< 0	< 80	< 80	< 80
COc1ccnc(C(=O)N[C@@H](C)C(=O)O[C@H](C)[C@H](c2ccc(F)cc2C)C(C)C)c1OC(C)=O [Compound 192]	> 80	< 80	> 80	< 80	< 0	> 80
COc1ccnc(C(=O)N[C@@H](C)C(=O)O[C@@H](C)[C@@H](c2ccc(F)cc2C)C2CCCC2)c1OCOC(C)=O [Compound 193]	< 80	< 80	< 80	< 80	< 0	< 80
COc1ccnc(C(=O)N[C@@H](C)C(=O)O[C@@H](C)[C@@H](c2ccc(F)cc2C)C2CCCCC2)c1OCOC(C)=O [Compound 194]	< 80	< 80	< 80	< 0	< 80	> 80
COc1ccnc(C(=O)N[C@@H](C)C(=O)O[C@@H](C)[C@H](c2ccc(F)cc2C)C2CCCC2)c1OCOC(C)=O [Compound 195]	> 80	< 80	> 80	> 80	> 80	> 80
CCC(C)[C@@H](c1ccc(F)cc1C)[C@H](C)OC(=O)[C@H](C)NC(=O)c1nccc(OC)c1OCOC(C)=O (stereo partly drawn) [Compound 196]	> 80	< 80	> 80	> 80	> 80	> 80
COc1ccnc(C(=O)N[C@@H](C)C(=O)O[C@@H](C)[C@H](c2ccc(F)cc2C)C2CCC2)c1OCOC(C)=O [Compound 197]	> 80	> 80	> 80	> 80	> 80	> 80
COc1ccnc(C(=O)N[C@@H](C)C(=O)O[C@H](C)[C@H](c2ccc(F)cc2C)C2CCCC2)c1OCOC(C)=O [Compound 198]	< 80	< 80	< 80	< 0	< 80	< 80
COc1ccnc(C(=O)N[C@@H](C)C(=O)O[C@H](C)[C@H](c2ccc(F)cc2C)C2CCCCC2)c1OCOC(C)=O [Compound 199]	< 80	< 80	< 80	< 0	> 80	< 80
COc1ccnc(C(=O)N[C@@H](C)C(=O)O[C@@H](C)[C@@H](c2ccc(C)cc2C)C(C)C)c1OC(C)=O [Compound 200]	< 80	< 0	< 80	< 80	< 0	< 80
COc1ccnc(C(=O)N[C@@H](C)C(=O)O[C@@H](C)[C@@H](c2ccc(C)cc2C)C2CCCC2)c1OC(C)=O [Compound 201]	< 80	< 0	> 80	< 80	< 80	< 80
COc1ccnc(C(=O)N[C@@H](C)C(=O)O[C@@H](C)[C@@H](c2ccc(C)cc2C)C2CCCCC2)c1OC(C)=O [Compound 202]	< 80	< 0	> 80	< 0	< 80	< 80
CCC(C)[C@H](c1ccc(C)cc1C)[C@H](C)OC(=O)[C@H](C)NC(=O)c1nccc(OC)c1OC(C)=O (stereo partly drawn) [Compound 203]	> 80	< 0	< 80	< 80	< 80	< 80
COc1ccnc(C(=O)N[C@@H](C)C(=O)O[C@@H](C)[C@@H](c2ccc(C)cc2C)C(C)C)c1OCOC(C)=O [Compound 204]	< 80	< 0	> 80	< 80	< 0	< 80
COc1ccnc(C(=O)N[C@@H](C)C(=O)O[C@@H](C)[C@@H](c2ccc(C)cc2C)C2CCCC2)c1OCOC(C)=O [Compound 205]	< 80	< 0	> 80	< 0	< 80	< 80
COc1ccnc(C(=O)N[C@@H](C)C(=O)O[C@@H](C)[C@@H](c2ccc(C)cc2C)C2CCCCC2)c1OCOC(C)=O [Compound 206]	< 80	< 0	< 80	< 0	< 80	< 80
